Laboratory results published in patent US7741355B2, “Small-molecule modulators of TRP-p8 activity” (Dendreon Corporation, priority 2006, dated 2010).

These compounds were tested against T1, Trp-p8 (Homo sapiens, UniProt Q7Z2W7, T58I) (assay: ATP viability assay with CHO/Trp-p8 cells at 37° C.). Conditions: Table 1, Formula I-A; CHO/Trp-p8 cells, 24-26 hours at 37° C., 50% reduction in relative cell viability; read-out: EC50.
T1 construct: expressed in transfected cells; host or cells: CHO (Chinese Hamster Ovary) cells
T1 sequence (Q7Z2W7 whole entry T58I): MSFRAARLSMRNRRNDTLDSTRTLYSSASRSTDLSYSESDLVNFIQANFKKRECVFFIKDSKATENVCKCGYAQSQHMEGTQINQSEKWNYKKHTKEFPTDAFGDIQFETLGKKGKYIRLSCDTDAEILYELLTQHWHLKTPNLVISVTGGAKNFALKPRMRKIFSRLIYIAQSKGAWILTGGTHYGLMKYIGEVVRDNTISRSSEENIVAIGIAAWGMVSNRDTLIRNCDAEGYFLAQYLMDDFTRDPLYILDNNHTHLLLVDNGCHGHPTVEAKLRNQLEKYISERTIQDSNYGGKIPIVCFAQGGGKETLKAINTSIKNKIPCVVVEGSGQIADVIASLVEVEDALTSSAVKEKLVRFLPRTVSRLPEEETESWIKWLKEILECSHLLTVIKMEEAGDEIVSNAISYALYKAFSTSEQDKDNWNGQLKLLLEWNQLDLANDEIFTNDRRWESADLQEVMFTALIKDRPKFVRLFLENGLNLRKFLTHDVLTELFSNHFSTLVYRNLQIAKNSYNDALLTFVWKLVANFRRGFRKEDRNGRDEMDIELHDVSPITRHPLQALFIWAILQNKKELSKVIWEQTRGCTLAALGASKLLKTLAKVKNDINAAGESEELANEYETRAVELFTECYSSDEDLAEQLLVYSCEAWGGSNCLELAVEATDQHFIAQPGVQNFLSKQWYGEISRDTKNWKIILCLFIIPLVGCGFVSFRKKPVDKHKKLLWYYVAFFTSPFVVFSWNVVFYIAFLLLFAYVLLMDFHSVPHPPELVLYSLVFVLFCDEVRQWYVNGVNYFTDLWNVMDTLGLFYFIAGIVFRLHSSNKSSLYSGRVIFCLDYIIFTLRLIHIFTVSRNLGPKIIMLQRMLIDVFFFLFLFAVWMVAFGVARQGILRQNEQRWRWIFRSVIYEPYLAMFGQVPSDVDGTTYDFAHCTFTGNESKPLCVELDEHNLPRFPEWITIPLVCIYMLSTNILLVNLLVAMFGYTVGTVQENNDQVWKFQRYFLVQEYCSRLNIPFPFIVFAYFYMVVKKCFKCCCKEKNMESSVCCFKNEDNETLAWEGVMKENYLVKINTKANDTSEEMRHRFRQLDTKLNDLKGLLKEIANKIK
Format: cell-based
Excerpt: Human Trp-p8 transfected CHO cells (referred to herein as CHO/Trp-p8) were generated for use in experiments of the present invention. Expression of Trp-p8 polypeptide in this transfectant and the absence of any endogenous expression in the non-transfected CHO was confirmed by western blot and immunofluorescence using a Trp-p8 specific antibody (GS2.20) as well as the calcium flux assay with Icilin (1-[2-hydroxyphenyl]-4-[3-nitrophenyl]-1,2,3,6-tetrahydropyrimidine-2-one) and menthol (2-isopropyl-5-methyl-cyclohexanol). Non-transfected CHO cells were used to establish the specificity of the effects of the compounds observed with CHO/Trp-p8.
This Example discloses an ATP viability assay suitable for screening for effective Trp-p8 agonists. The ATP viability assay described herein employs CHO cells expressing an exogenous Trp-p8 cDNA. This example further establishes that Trp-p8 agonists of the present invention are effective in decreasing the viability of Trp-p8 expressing cells.
The concentration of intracellular ATP declines very rapidly when metabolically active cells undergo necrosis and/or apoptosis. The ATP concentration and consequently the relative cell viability can be measured by established methods using commercially available reagents. In the agonist screening methodology disclosed herein, a compound that specifically decreases the viability of CHO/Trp-p8 cells is referred to as an agonist.
As a primary screen for efficacy and specificity for agonists, both the non-transfected CHO and CHO/Trp-p8 cells were exposed to 1 or 10 μM of test compounds in 1% dimethylsulfoxide (DMSO) or 1% DMSO (control) in a 96-well black walled, black-bottomed, cell-culture treated plate. DMSO was the solvent for all of the compounds tested. After 24-26 hours at 37° C., the cells were lysed and ATP concentration determined via a chemiluminescence assay using a commercially available reagent kit—Cell Titer-Glo (Promega; Madison, Wis.). […] (EC50 is defined herein as the agonist concentration at which there is a 50% reduction in relative cell viability).
For `COc1ccc(NC(=O)[C@@H]2C[C@H](C)CC[C@H]2C(C)C)c(NC(=O)[C@@H](C)N)c1` [Compound 1, 2-Isopropyl-5-methyl-cyclohexanecarboxylic acid-[2-(2-aminopropionylamino)-4-methoxylphenyl]amide], the EC50 was < 0.02 µM.
In the case of `CSc1ccc(NC(=O)[C@@H]2C[C@H](C)CC[C@H]2C(C)C)c(C(=O)NCCN)c1` [Compound 2], the EC50 is reported as < 0.02 µM.
For `CC(C)[C@@H]1CC[C@@H](C)C[C@H]1C(=O)Nc1ccc2ccccc2c1OCCN` [Compound 3], the EC50 was < 0.02 µM.
With `CSc1ccc(NC(=O)[C@@H]2C[C@H](C)CC[C@H]2C(C)C)c(NCCN)c1` [Compound 4, 2-Isopropyl-5-methyl-cyclohexanecarboxylic acid [2-(2-amino-ethylamino)-4-methylsulfanyl-phenyl]amide] the EC50 was < 0.02 µM.
For `COc1ccc(NC(=O)[C@@H]2C[C@H](C)CC[C@H]2C(C)C)c(C(=O)NCCN)c1` [Compound 5], the EC50 was < 0.02 µM.
Compound `CC[C@@H](N)C(=O)Nc1cc(OC)ccc1NC(=O)[C@@H]1C[C@H](C)CC[C@H]1C(C)C` [Compound 6] has an EC50 of 0.021 to 0.05 µM.
Compound `COc1ccc(NC(=O)[C@@H]2C[C@H](C)CC[C@H]2C(C)C)c(NC(=O)[C@H](N)CO)c1` [Compound 7] has an EC50 of 0.021 to 0.05 µM.
With `CC(C)[C@@H]1CC[C@@H](C)C[C@H]1C(=O)Nc1cc2ccccc2cc1NCCN` [Compound 8] the EC50 was 0.021 to 0.05 µM.
`CC(C)[C@@H]1CC[C@@H](C)C[C@H]1C(=O)Nc1ccccc1C(=O)NCCN` [Compound 9] was tested, and the EC50 was 0.021 to 0.05 µM.
For `COc1ccc(NC(=O)[C@@H]2C[C@H](C)CC[C@H]2C(C)C)c(NC(=O)[C@@H](N)CO)c1` [Compound 10], the EC50 was 0.021 to 0.05 µM.
In the case of `CC(C)[C@@H]1CC[C@@H](C)C[C@H]1C(=O)Nc1ccccc1NC(=O)CN` [Compound 11], the EC50 is reported as 0.051 to 0.1 µM.
Compound `COc1ccc(NC(=O)[C@@H]2C[C@H](C)CC[C@H]2C(C)C)c(NC(=O)[C@H](N)[C@H](C)O)c1` [Compound 12] has an EC50 of 0.051 to 0.1 µM.
`COc1ccc(NC(=O)[C@@H]2C[C@H](C)CC[C@H]2C(C)C)c(NC(=O)CN)c1` [Compound 13] was tested, and the EC50 was 0.051 to 0.1 µM.

Same assay, conditions: Table 2, Formula I-B; CHO/Trp-p8 cells, 24-26 hours at 37° C., 50% reduction in relative cell viability; read-out: EC50
`CC(C)[C@@H]1CC[C@@H](C)C[C@H]1C(=O)Nc1cc(-c2ccco2)nn1CCN` [Compound 14, 2-Isopropyl-5-methyl-cyclohexane carboxylic acid-[2-(2-amino-ethyl)-5-furan-2-yl-2H-pyrazol-3-yl]-amide] was tested, and the EC50 was < 0.02 µM.
In the case of `CC(C)[C@@H]1CC[C@@H](C)C[C@H]1C(=O)Nc1cc(-c2ccccc2)nn1C[C@@H](C)N` [Compound 15], the EC50 is reported as < 0.02 µM.
In the case of `CC(C)[C@@H]1CC[C@@H](C)C[C@H]1C(=O)Nc1cc(-c2ccccc2)nn1CCN` [Compound 16], the EC50 is reported as < 0.02 µM.
`CC(C)[C@@H]1CC[C@@H](C)C[C@H]1C(=O)Nc1cc(-c2cccn2C)nn1CCN` [Compound 17, 2-Isopropyl-5-methyl-cyclohexane carboxylic acid-[2-(2-amino-ethyl)-5-(1-methyl-1H-pyrrol-2-yl)-2H-pyrazol-3-yl]-amide] was tested, and the EC50 was < 0.02 µM.
`CC(C)[C@@H]1CC[C@@H](C)C[C@H]1C(=O)Nc1cc(-c2ccccc2)nn1CCCN` [Compound 18] was tested, and the EC50 was < 0.02 µM.
For `CC(C)[C@@H]1CC[C@@H](C)C[C@H]1C(=O)Nc1cc(-c2ccc(N)cc2)nn1CCN` [Compound 19], the EC50 was 0.021 to 0.05 µM.
For `CC(C)[C@@H]1CC[C@@H](C)C[C@H]1C(=O)Nc1cc(-c2ccc(O)cc2)nn1CCN` [Compound 20], the EC50 was 0.021 to 0.05 µM.
With `CNCCn1nc(-c2ccccc2)cc1NC(=O)[C@@H]1C[C@H](C)CC[C@H]1C(C)C` [Compound 21] the EC50 was 0.021 to 0.05 µM.
`CC(C)[C@@H]1CC[C@@H](C)C[C@H]1C(=O)Nc1cc(-c2ccccc2)nn1C[C@H](C)N` [Compound 22] was tested, and the EC50 was 0.021 to 0.05 µM.
`CC(C)[C@@H]1CC[C@@H](C)C[C@H]1C(=O)Nc1cc(-c2cccc(C#N)c2)nn1CCN` [Compound 23] showed an EC50 of 0.021 to 0.05 µM.
`COc1cccc(-c2cc(NC(=O)[C@@H]3C[C@H](C)CC[C@H]3C(C)C)n(CCN)n2)c1` [Compound 24] was tested, and the EC50 was 0.021 to 0.05 µM.
Work on `COC(=O)c1ccc(-c2cc(NC(=O)[C@@H]3C[C@H](C)CC[C@H]3C(C)C)n(CCN)n2)cc1` [Compound 25] yielded an EC50 of 0.051 to 0.1 µM.
For `CC(C)[C@@H]1CC[C@@H](C)C[C@H]1C(=O)Nc1cc(-c2cccc(N)c2)nn1CCN` [Compound 26], the EC50 was 0.051 to 0.1 µM.
`CC(C)[C@@H]1CC[C@@H](C)C[C@H]1C(=O)Nc1cc(-c2cccc(O)c2)nn1CCN` [Compound 27] was tested, and the EC50 was 0.051 to 0.1 µM.

Same assay, conditions: Table 3, Formula I-C; CHO/Trp-p8 cells, 24-26 hours at 37° C., 50% reduction in relative cell viability; read-out: EC50
With `CC(C)[C@@H]1CC[C@@H](C)C[C@H]1C(=O)NCC(NC(=O)[C@@H](C)N)c1ccccc1` (stereo in doubt) [Compound 28, 2-Isopropyl-5-methyl-cyclohexanecarboxylic acid [2-(2-amino-propionylamino)-2-phenyl-ethyl]-amide] the EC50 was < 0.02 µM.
For `CC(C)[C@@H]1CC[C@@H](C)C[C@H]1C(=O)NC[C@@H](OCCN)c1ccccc1` [Compound 29], the EC50 was < 0.02 µM.
In the case of `CC(C)[C@@H]1CC[C@@H](C)C[C@H]1C(=O)NCC(OCCN)c1ccccc1` (stereo partly shown) [Compound 30, 2-Isopropyl-5-methyl-cyclohexanecarboxylic[2-(2-amino-4-ethoxy)-2-phenyl-ethyl]-amide], the EC50 is reported as < 0.02 µM.
`CC(C)[C@@H]1CC[C@@H](C)C[C@H]1C(=O)NCC(OCCCN)c1ccccc1` (stereo partly shown) [Compound 31, 2-Isopropyl-5-methyl-cyclohexanecarboxylic[2-(3-amino-4-propoxy)-2-phenyl-ethyl]-amide] gave an EC50 of 0.021 to 0.05 µM.
`CC(C)[C@@H]1CC[C@@H](C)C[C@H]1C(=O)NCC(NCCN)c1ccccc1` (stereo partly shown) [Compound 32] showed an EC50 of 0.051 to 0.1 µM.

Same assay, conditions: Table 4, Formula I-D; CHO/Trp-p8 cells, 24-26 hours at 37° C., 50% reduction in relative cell viability; read-out: EC50
For `CC(C)[C@@H]1CC[C@@H](C)C[C@H]1C(=O)NCCc1ccccc1NCCN` [Compound 33, 2-Isopropyl-5-methyl-cyclohexanecarboxylic acid {2-[2-(2-amino-ethylamino)-phenyl]-ethyl}-amide], the EC50 was < 0.02 µM.
For `CC(C)[C@@H]1CC[C@@H](C)C[C@H]1C(=O)NCCc1ccccc1CN` [Compound 34], the EC50 was < 0.02 µM.
`CC(C)[C@@H]1CC[C@@H](C)C[C@H]1C(=O)NCCN(C(=O)CN)c1ccccc1` [Compound 35] was tested, and the EC50 was 0.021 to 0.05 µM.

Same assay, conditions: Table 5, Formula I-E; CHO/Trp-p8 cells, 24-26 hours at 37° C., 50% reduction in relative cell viability; read-out: EC50
`CCOc1ccc2c(c1)n(CCN)c(=O)n2C(=O)[C@@H]1C[C@H](C)CC[C@H]1C(C)C` (stereo in doubt) [Compound 38, 3-(2-Aminoethyl)-5-ethoxy-1-(2-isopropyl-5-methylcyclohexanecarbonyl)-1,3-dihydro-benzoimidazol-2-one] was tested, and the EC50 was < 0.02 µM.
In the case of `CCNC(=O)c1ccc2c(c1)n(CCN)c(=O)n2C(=O)[C@@H]1C[C@H](C)CC[C@H]1C(C)C` (stereo in doubt) [Compound 47, 3-(2-Amino-ethyl)-1-(2-isopropyl-5-methylcyclohexanecarbonyl)-2-oxo-2,3-dihydro-1H-benzoimidazole-5-carboxylic acid ethyl amide], the EC50 is reported as < 0.02 µM.
In the case of `CC(C)[C@@H]1CC[C@@H](C)C[C@H]1C(=O)n1c(=O)n(CCN)c2cc(C(=O)Nc3cccnc3)ccc21` (stereo in doubt) [Compound 48, 3-(2-Amino-ethyl)-1-(2-isopropyl-5-methylcyclohexanecarbonyl)-2-oxo-2,3-dihydro-1H-benzoimidazole-5-carboxylic acid pyridine-3-yl amide], the EC50 is reported as < 0.02 µM.
For `COc1ccc2c(c1)n(CCN)c(=O)n2C(=O)[C@@H]1C[C@H](C)CC[C@H]1C(C)C` [Compound 36, 3-(2-Aminoethyl)-1-(2-isopropyl-5-methylcyclohexanecarbonyl)-5-methoxy-1,3-dihydro-benzoimidazol-2-one], the EC50 was < 0.02 µM.
For `CC(C)[C@@H]1CC[C@@H](C)C[C@H]1C(=O)n1c(=O)n(CCN)c2cc(OCCCO)ccc21` [Compound 37, 3-(2-aminoethyl)-5-(3-hydroxypropoxy)-1-(2-isopropyl-5-methylcyclohexanecarbonyl)-1,3-dihydro-benzoimidazol-2-one], the EC50 was < 0.02 µM.
`CC(C)[C@@H]1CC[C@@H](C)C[C@H]1C(=O)n1c(=O)n(CCN)c2cc(S(C)(=O)=O)ccc21` [Compound 39] was tested, and the EC50 was < 0.02 µM.
`CC(C)[C@@H]1CC[C@@H](C)C[C@H]1C(=O)n1c(=O)n(CCN)c2cc(OCCO)ccc21` [Compound 40, 3-(2-aminoethyl)-5-(2-hydroxyethoxy)-1-(2-isopropyl-5-methylcyclohexanecarbonyl)-1,3-dihydro-benzoimidazol-2-one] was tested, and the EC50 was < 0.02 µM.
For `CC(C)[C@@H]1CC[C@@H](C)C[C@H]1C(=O)n1c(=O)n(CCN)c2cc(C(N)=O)ccc21` [Compound 41, 3-(2-Amino-ethyl)-1-(2-isopropyl-5-methyl-cyclohexanecarbonyl)-2-oxo-2,3-dihydro-1H-benzoimidazole-5-carboxylic acid amide], the EC50 was < 0.02 µM.
